# Where a chain is given by its changes, count along the chain named. Names may count otherwise.
# B1: FBL2(50-423): alternative FBL2 N-terminal truncation (protein, UniProt Q9UKC9 50-423, looked up, fragment)
# chain: SNWQRIDLFNFQTDVEGRVVENISKRCGGFLRKLSLRGCIGVGDSSLKTFAQNCRNIEHLNLNGCTKITDSTCYSLSRFCSKLKHLDLTSCVSITNSSLKGISEGCRNLEYLNLSWCDQITKDGIEALVRGCRGLKALLLRGCTQLEDEALKHIQNYCHELVSLNLQSCSRITDEGVVQICRGCHRLQALCLSGCSNLTDASLTALGLNCPRLQILEAARCSHLTDAGFTLLARNCHELEKMDLEECILITDSTLIQLSIHCPKLQALSLSHCELITDDGILHLSNSTCGHERLRVLELDNCLLITDVALEHLENCRGLERLELYDCQQVTRAGIKRMRAQLPHVKVHAYFAPVTPPTAVAGSGQRLCRCCVIL
# B2: FBL2(67-423): FBL2 with its NH2-terminal F-box deleted; dominant-negative for HCV RNA replication (protein, UniProt Q9UKC9 67-423, looked up, fragment)
# chain: RVVENISKRCGGFLRKLSLRGCIGVGDSSLKTFAQNCRNIEHLNLNGCTKITDSTCYSLSRFCSKLKHLDLTSCVSITNSSLKGISEGCRNLEYLNLSWCDQITKDGIEALVRGCRGLKALLLRGCTQLEDEALKHIQNYCHELVSLNLQSCSRITDEGVVQICRGCHRLQALCLSGCSNLTDASLTALGLNCPRLQILEAARCSHLTDAGFTLLARNCHELEKMDLEECILITDSTLIQLSIHCPKLQALSLSHCELITDDGILHLSNSTCGHERLRVLELDNCLLITDVALEHLENCRGLERLELYDCQQVTRAGIKRMRAQLPHVKVHAYFAPVTPPTAVAGSGQRLCRCCVIL
# B3: FBL2(67-423; C420S): FBL2 with both its F-box deleted and its CAAX box mutated (protein, UniProt Q9UKC9 67-423, looked up, fragment C420S)
# chain: B2 chain with C354S
# B4: FBL2(100-423): alternative FBL2 N-terminal truncation (protein, UniProt Q9UKC9 100-423, looked up, fragment)
# chain: AQNCRNIEHLNLNGCTKITDSTCYSLSRFCSKLKHLDLTSCVSITNSSLKGISEGCRNLEYLNLSWCDQITKDGIEALVRGCRGLKALLLRGCTQLEDEALKHIQNYCHELVSLNLQSCSRITDEGVVQICRGCHRLQALCLSGCSNLTDASLTALGLNCPRLQILEAARCSHLTDAGFTLLARNCHELEKMDLEECILITDSTLIQLSIHCPKLQALSLSHCELITDDGILHLSNSTCGHERLRVLELDNCLLITDVALEHLENCRGLERLELYDCQQVTRAGIKRMRAQLPHVKVHAYFAPVTPPTAVAGSGQRLCRCCVIL
# B5: wild-type FBL2: NH2-terminal Myc-tagged wild-type FBL2 expressed from a transfected plasmid (protein, UniProt Q9UKC9 1-423, looked up)
# F-box/LRR-repeat protein 2: MVFSNNDEGLINKKLPKELLLRIFSFLDIVTLCRCAQISKAWNILALDGSNWQRIDLFNFQTDVEGRVVENISKRCGGFLRKLSLRGCIGVGDSSLKTFAQNCRNIEHLNLNGCTKITDSTCYSLSRFCSKLKHLDLTSCVSITNSSLKGISEGCRNLEYLNLSWCDQITKDGIEALVRGCRGLKALLLRGCTQLEDEALKHIQNYCHELVSLNLQSCSRITDEGVVQICRGCHRLQALCLSGCSNLTDASLTALGLNCPRLQILEAARCSHLTDAGFTLLARNCHELEKMDLEECILITDSTLIQLSIHCPKLQALSLSHCELITDDGILHLSNSTCGHERLRVLELDNCLLITDVALEHLENCRGLERLELYDCQQVTRAGIKRMRAQLPHVKVHAYFAPVTPPTAVAGSGQRLCRCCVIL
# modifications: N-terminal Myc tag
# notes: NH2-terminal Myc-tagged wild-type FBL2 expressed from a transfected plasmid
# Legend:
# wild-type FBL2 = test: Subcellular fractionation (cytosol/membrane) and immunoblot of transfected wild-type FBL2 in CHO-7 cells; type: cell-based; conditions: CHO-7 cells transfected with Myc-tagged wild-type FBL2; immunoblot anti-Myc
# Experimental: (§1) Since prenylation of proteins normally facilitates their membrane association, we compared the localization of wild-type FBL2 and the mutant FBL2 that cannot be prenylated. CHO-7 cells transfected with a plasmid encoding NH2-terminal Myc-tagged wild-type FBL2 or mutant FBL2(C420S) were treated either with GGTI-286, a drug that inhibits both geranylgeranylation and farnesylation, or with FPTI-III, a drug that inhibits only farnesylation (Ye et al., 2003). Cells were fractionated into cytosol and membrane fractions, and immunoblotted with monoclonal anti-Myc IgG-9E10.
# mutant FBL2(C420S) = test: Subcellular fractionation (cytosol/membrane) and immunoblot of transfected mutant FBL2(C420S) in CHO-7 cells; type: cell-based; conditions: CHO-7 cells transfected with Myc-tagged FBL2(C420S)
# Experimental: as §1
# HCV RNA = HCV RNA level / replication in Huh7-HP replicon cells; type: cell-based; conditions: drug treatment
# Source text: Further evidence that FBL2 is required for HCV RNA replication was obtained in experiments in which the level of FBL2 mRNA was reduced by transfection with duplex siRNA. An siRNA sequence targeting human FBL2 and having a sequence corresponding to positions 40-60 relative to the first nucleotide start codon, was transfected into Huh7-HP cells with TransMessenger transfection reagent (Qiagen) according to the manufacturer's protocol. […] We confirmed that these cells resemble the other HCV replicon cell lines in that HCV replication is inhibited by treatment with lovastatin (Ye et al., 2003) or an inhibitor of GGTase-I, GGTI-286. The NS5A derived from these cells interacts with FBL2. siRNA targeting FBL2 was and produced a 70% knockdown of FBL2 mRNA, an effect that was not observed when the cells were treated with a control siRNA containing 6 mismatched nucleotides.
# HCV RNA replication = conditions: cited from earlier work; for overcoming of the inhibition of HCV RNA replication by lovastatin: added with lovastatin
# HCV RNA replicon = test: HCV RNA level in Huh7-K2040 replicon cells after transfection of FBL2 plasmids; type: cell-based; conditions: at least 80% of cells transfected
# Source text: FBL2(67-423), which lacks an F-box, is likely to be nonfunctional, yet it still binds to NS5A. We therefore considered the possibility that overexpression of FBL2(67-423) may inhibit HCV RNA replication in a dominant-negative fashion by sequestering NS5A and preventing it from interacting with endogenous functional FBL2. To test this hypothesis, we transfected plasmids encoding wild-type and various mutant versions of FBL2 into Huh7-K2040 cells that harbor the HCV RNA replicon. As described above, we included only those experiments in which at least 80% of the cells were transfected. […] Importantly, transfected FBL2(67-423; C420S), which cannot bind to NS5A, had no effect on HCV RNA levels.
# NS5A = conditions: Huh7 cells; anti-Flag pull-down of NS5A, anti-Myc blot
# Source text: To determine the components of FBL2 that are required for interaction with the NH2-terminal half of NS5A, we made plasmids encoding the following proteins: NH2-terminal Myc-tagged wild-type FBL2, FBL2 with its CAAX box mutated so that it cannot be geranylgeranylated (C420S), FBL2 with its NH2-terminal F-box deleted (FBL2(67-423)), and FBL2 with both its F-box deleted and its CAAX box mutated (FBL2 67-423, C420S). These plasmids were transfected into Huh7 cells together with a plasmid encoding Flag and HA-tagged NS5A. Cell extracts were immunoprecipitated with anti-Flag beads to pull down NS5A and blotted with anti-HA and anti-Myc for detection of transfected NS5A and FBL2, respectively.
# West Nile virus replicon = West Nile virus replicon RNA level in Huh7-WNV-2 cells after transfection of FBL2 plasmids; type: cell-based; conditions: conditions reducing HCV RNA by 75%
molecule,measurement,setting,value
COC(=O)[C@H](CC(C)C)NC(=O)c1ccc(NC[C@@H](N)CS)cc1-c1ccccc1 [GGTI-286],localization of wild-type FBL2 in cytosol and membrane fractions,wild-type FBL2,distributed equally in cytosol and membrane fractions
same,subcellular localization of the mutant FBL2 that lacks a CAAX motif,mutant FBL2(C420S),did not change
same,HCV replication,HCV RNA,inhibited
CC(C)=CCCC(C)=CCCC(C)=CCO [farnesol],overcoming of the inhibition of HCV RNA replication by lovastatin,HCV RNA replication,not
CC(C)=CCC/C(C)=C/CC/C(C)=C/CC/C(C)=C/CO [geranylgeraniol],overcoming of the inhibition of HCV RNA replication by lovastatin,HCV RNA replication,overcome
CC[C@H](C)C(=O)O[C@H]1C[C@@H](C)C=C2C=C[C@H](C)[C@H](CC[C@@H]3C[C@@H](O)CC(=O)O3)[C@H]21 [lovastatin],HCV replication,HCV RNA,inhibited
same,HCV RNA replication,HCV RNA replication; Huh7 cells,disrupted
FPTI-III,localization of wild-type FBL2 in cytosol and membrane fractions,wild-type FBL2,not
B1,reduction of the level of HCV RNA,HCV RNA replicon,dominant-negative affects
B2,co-precipitation with NS5A,NS5A,co-precipitated
same,change in the level of West Nile virus replicon RNA,West Nile virus replicon,no significant change
B3,co-precipitation with NS5A,NS5A,abrogated binding
same,reduction of the level of HCV RNA,HCV RNA replicon,no effect
B4,reduction of the level of HCV RNA,HCV RNA replicon,dominant-negative affects
B5,co-precipitation with NS5A,NS5A,co-precipitated
same,reduction of the level of HCV RNA,HCV RNA replicon,did not change
